Results from paper PMC7284125, “Identification of annotated bioactive molecules that impair motility of the blood fluke Schistosoma mansoni” (International Journal for Parasitology: Drugs and Drug …, 2020).
Like-named read-outs stand apart in the source and are kept apart here.

Legend:
[1] = system: naïve Glo HEK293 cells (no receptor); assay: cAMP luminescence (GloSensor) assay on naïve Glo HEK293 cells (no receptor); assay type: cell-based, human; conditions: 50 μM EPN
Method: The SmGPR2 sequence previously identified ([El-Shehabi and Ribeiro, 2010]) was codon optimized for mammalian expression and subcloned in the vector pCI-neo (Addgene, USA) using the XbaI and NotI restriction enzymes. A FLAG fusion tag ([…]) was introduced at the N-terminal end of the receptor sequence. Stable transfection of HEK293 cells (ATCC; CRL-1573) was performed using the X-tremeGENE 9 DNA transfection reagent (Sigma Aldrich). Cells were then cultured at 37 °C, 5% CO2 in Opti-MEM supplemented with 5% FBS and maintained in 400 μg/mL G418 (Sigma Aldrich) for selection of transformants. […] All cell lines expressing S. mansoni GPCRs were then transfected with the GloSensor encoding plasmid p22F (Promega) and media was supplemented with 100 μg/mL hygromycin for stable expression (ThermoFisher).
Adherent HEK293 cells were seeded at a density of 5 x 10^4 cells/well (96-well plate) in Opti-MEM without FBS or antibiotics and incubated overnight at 37 °C and 5% CO2 prior to the assay. In place of the media, 100 μL HBSS supplemented with 0.1% bovine serum albumin (BSA), 500 μM 3-isobutyl-1-methylxanthine (IBMX, Sigma Aldrich), 20 mM HEPES (pH 7.4) and 1 mg/mL D-luciferin (Goldbio) was added to each well. After a 2 h incubation period at room temperature, luminescence background was recorded, and compounds and control ligands were added at 10X concentration. Immediately after compound addition, luminescence was read over a 45 min period to detect compounds stimulating cAMP release through receptor activation. […] For each assay, luminescence responses were recorded in triplicate and repeated with four independant cell batches. Compounds were also added to naïve Glo HEK293 cells (no receptor) and the robustness of the assay was calculated as: Z^'=1−3×(SDmax+SDmin)/Meanmax−Meanmin with max and min referring respectively to cells expressing GPCRs and Glo (no receptor) cells. Cellular viability was assessed using a CellTiter Glo 2.0 kit (Promega). Glo cells were exposed to 10 μM of each hit compound for 3 h in Opti-MEM at 37 °C, 5% CO2. An equimolar concentration of tamoxifen (Sigma Aldrich) was used as a positive control. 2X cell lysis media was then added and end-point luminescence recorded after a 10 min stabilization time.

[2] = system: S. mansoni schistosomulae; assay: Phenotypic primary screen assay on schistosomulae (phenotype; viability by methylene blue dye exclusion); assay type: cell-based, Schistosoma mansoni
In short: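 Parasites lacking contraction/relaxation cycles and showing dark internal granulations counted as dead. Movement and body shape were compared with DMSO-treated controls under a stereo microscope at 24 h and at five days of exposure. Larvae came from infected snails shed under light for 2 h at 32 °C.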

[3] = system: S. mansoni adult worms; assay: Motility assay on adult parasites (pixel displacement, relative to DMSO control); assay type: cell-based, Schistosoma mansoni; conditions: 10 μM; for Fractional motility: secondary screen; for motility phenotype in words: adults, long-term after washout
In short: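 Unpaired adult worms from mice 6 weeks post-infection kept in OPTI-MEM with 5% dialyzed FBS and exposed to compounds at 1 and 10 μM for 24 h. Motility filmed 1 min at 10 frames/s, quantified by pixel displacement versus DMSO-treated worms; recovery followed up to five days after washout.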

[4] = system: S. mansoni schistosomulae; assay: Phenotypic primary screen assay on schistosomulae (phenotype; viability by methylene blue dye exclusion); assay type: cell-based; conditions: Schistosoma mansoni
[5] = system: S. mansoni schistosomulae; assay: Motility assay on schistosomulae (pixel displacement, relative to DMSO control); assay type: cell-based, Schistosoma mansoni; conditions: for activity at 1 µM: Schistosoma mansoni, read-out: Fractional motility; for motility in extended assay with reduced incubation times, in words: three-day old schistosomulae, incubation 1 h, 3 h, 6 h
In short: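 Mechanically transformed S. mansoni schistosomulae (200/well) in Opti-MEM with 5% dialyzed FBS were exposed to compounds at 1 and 10 μM for 24 h at 37 °C, 5% CO2. Motility filmed at 10 frames/s for 1 min and quantified by pixel displacement relative to DMSO-treated controls.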

[6] = molecular target: SmD2 (Schistosoma mansoni, UniProt G4LUJ1); assay: cell-based; assay type: cell-based
Chain of SmD2 (G4LUJ1 entry or part of it): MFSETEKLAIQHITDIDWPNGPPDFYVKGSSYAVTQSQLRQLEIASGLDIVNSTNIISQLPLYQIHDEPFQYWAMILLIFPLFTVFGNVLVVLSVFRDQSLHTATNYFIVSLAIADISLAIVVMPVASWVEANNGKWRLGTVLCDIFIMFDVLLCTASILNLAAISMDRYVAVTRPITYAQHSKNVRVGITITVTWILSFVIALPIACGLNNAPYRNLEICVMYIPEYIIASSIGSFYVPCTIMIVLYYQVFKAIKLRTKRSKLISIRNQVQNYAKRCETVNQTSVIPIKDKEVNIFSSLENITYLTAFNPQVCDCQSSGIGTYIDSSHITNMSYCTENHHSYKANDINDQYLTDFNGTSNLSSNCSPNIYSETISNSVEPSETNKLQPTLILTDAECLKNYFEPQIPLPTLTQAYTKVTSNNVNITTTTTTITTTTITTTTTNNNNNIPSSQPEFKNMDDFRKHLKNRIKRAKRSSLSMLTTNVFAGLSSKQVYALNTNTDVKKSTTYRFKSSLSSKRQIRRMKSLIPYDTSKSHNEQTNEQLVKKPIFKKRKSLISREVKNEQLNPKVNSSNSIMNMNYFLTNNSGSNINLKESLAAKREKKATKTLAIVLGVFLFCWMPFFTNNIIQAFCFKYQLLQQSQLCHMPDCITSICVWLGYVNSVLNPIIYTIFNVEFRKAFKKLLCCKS

[7] = three-day-old schistosomulae, 10 μM, 24 h, estimated 5 days post compound exposure
[8] = three-day-old schistosomulae, 10 μM, 24 h, calculated 5 days post compound exposure, read-out: Viability (%)
[9] = 120 h, schistosomulae, secondary screen, 24h exposure, read at D5, 1 µM
[10] = schistosomulae, secondary screen, 24h exposure, read at D1, 1 µM
[11] = schistosomulae, secondary screen, 24h exposure, read at D1, 10 µM
[12] = schistosomulae, secondary screen, 24h exposure, read at D5, 10 µM
[13] = schistosomulae, 1h exposure, read at D1, 10 µM
[14] = schistosomulae, 1h exposure, read at D5, 10 µM
[15] = schistosomulae, 3h exposure, read at D1, 10 µM
[16] = schistosomulae, 3h exposure, read at D5, 10 µM
[17] = schistosomulae, 6h exposure, read at D1, 10 µM
[18] = schistosomulae, 6h exposure, read at D5, 10 µM
[19] = inhibition of EPN-evoked luminescence, SmD2 expressing HEK293 cells, read-out: IC50
[20] = NPS-2143 and analogs, 24h, D1, 10 µM
[21] = NPS-2143 and analogs, 24h, D5, 10 µM
[22] = 120 h, NPS-2143 and analogs, 24h, D5, 1 µM
[23] = NPS-2143 and analogs, 24h, D1, 1 µM

| Compound | Phenotype [2, 7] | Fractional motility ([3]; D1, Female adult worms) | Fractional motility ([3]; D1, Male adult worms) | Fractional motility ([3]; D5, Female adult worms) | Fractional motility ([3]; D5, Male adult worms) | viability at 10 µM [4, 8] [%] | activity at 1 µM [5, 9] [%] | activity at 1 µM [5, 10] [%] | Fractional motility [5, 11] | Fractional motility [5, 12] | IC50 [6, 19] [nM] | further results |
| --- | --- | --- | --- | --- | --- | --- | --- | --- | --- | --- | --- | --- |
| O=C1CCc2ccc(OCCCCN3CCN(c4cccc(Cl)c4Cl)CC3)cc2N1 [Aripiprazole] | granulated | 0.19 | 0.50 | -0.80 | -0.14 | 96.5 | -61 | -48 | -0.15 | -0.56 | – | inhibition of EPN-evoked luminescence [1]: ≥ 50% |
| CNCC[C@H](Oc1cccc2ccccc12)c1cccs1 [Duloxetine] | – | 0.62 | 4.31 | 0.30 | 0.54 | – | – | – | – | – | – | inhibition of EPN-evoked luminescence [1]: ≥ 50%; Phenotype [2]: granulated; viability at 10 µM [4]: 90%; IC50 [6]: 5950 nM; inhibition at 10 µM ([6]; HEK293, read-out: inhibition of EPN-evoked luminescence): ≥ 50%; activity at 1 µM ([5]; 120 h): -13% |
| CNCCc1ccc(O)c(O)c1 [EPN, epinine] | – | – | – | – | – | – | – | – | – | – | – | EC50 ([6]; luminescent cAMP signal, agonist): 2520 ± 1120 nM |
| COc1ccc2cc1Oc1ccc(cc1)C[C@H]1c3cc(c(OC)cc3CCN1C)Oc1c(OC)c(OC)cc3c1[C@H](C2)N(C)CC3 [Tetrandrine] | big, granulated | -0.51 | -0.37 | -0.97 | -0.61 | 89 | -31 | -9 | -0.39 | -0.87 | – | motility phenotype in words [3]: strongly impaired movement |
| CNCc1ccc(-c2cc(-c3nc(-c4ccc(S(=O)(=O)C(C)C)cc4)cnc3N)on2)cc1 [VE-822] | dark, granulated | -0.46 | -0.30 | -0.67 | -0.66 | 11.5 | -14 | -37 | -0.68 | -0.83 | – | motility phenotype in words [3]: Significant hypomotility; Fractional motility [5, 13]: -0.26; Fractional motility [5, 14]: -0.63; Fractional motility [5, 15]: -0.72; Fractional motility [5, 16]: -0.69; Fractional motility [5, 17]: 3.57; Fractional motility [5, 18]: 0.02; motility in extended assay with reduced incubation times, in words [5]: did not exhibit a significant change before the 24 hr incubation cut-off |
| C=CC(=O)Nc1cccc(Oc2nc(Nc3ccc(N4CCN(C)CC4)cc3OC)ncc2Cl)c1 [WZ4002] | dark, granulated | 0.66 | 0.64 | -0.61 | 1.33 | 7 | 51 | -58 | – | -0.62 | – | motility phenotype in words [3]: hypermotility in male worms and hypomotility in females |
| COCCn1c2c([n+](Cc3cnccn3)c1C)C(=O)c1ccccc1C2=O [YM155] | big, granulated | 0.22 | 1.90 | -0.79 | 0.70 | 40 | -82 | -73 | -0.91 | -1.00 | – | Fractional motility [5, 13]: -0.48; Fractional motility [5, 14]: -0.85; Fractional motility [5, 15]: -0.70; Fractional motility [5, 16]: -0.96; Fractional motility [5, 17]: 1.86; Fractional motility [5, 18]: -1.00; motility in extended assay with reduced incubation times, in words [5]: significant and sustained hypomotility |
| O=C1Cc2cc(CCN3CCN(c4nsc5ccccc45)CC3)c(Cl)cc2N1 [Ziprasidone] | dark, granulated | 1.30 | 0.47 | -0.12 | 0.73 | 2.5 | -73 | 0.0588 | 10.63 | -1.00 | – | Fractional motility [5, 13]: 9.35; Fractional motility [5, 14]: -0.16; Fractional motility [5, 15]: 8.26; Fractional motility [5, 16]: -0.06; Fractional motility [5, 17]: 0.49; Fractional motility [5, 18]: 0.31; hypermotility relative to control ([5]; schistosomulae, after 24 h incubation): 11 ± 2 fold; motility phenotype in words ([5]; schistosomulae, long-term, five days after compound washout): all parasites became paralyzed; motility in extended assay with reduced incubation times, in words [5]: did not exhibit a significant change before the 24 hr incubation cut-off |
| COc1ccc(CCNCC(O)COc2ccccc2C2CC3CCC2C3)cc1OC (centres unmarked) [compound 28] | – | – | – | – | – | – | – | – | – | – | 27.2 | Fractional motility [5, 20]: -1.00; Fractional motility [5, 21]: -1.00; activity at 1 µM [5, 22]: -67%; activity at 1 µM [5, 23]: -69% |
| CC(=O)Nc1ccc(CCNCC(O)COc2cccc3ccccc23)cc1 (centres unmarked) [compound 31] | – | – | – | – | – | – | – | – | – | – | 21.7 | Fractional motility [5, 20]: -0.82; Fractional motility [5, 21]: -0.79; activity at 1 µM [5, 22]: -34%; activity at 1 µM [5, 23]: -69% |
| OC(CNCCc1ccccc1)COc1ccccc1C1CCCCC1 (centres unmarked) [compound 35] | – | – | – | – | – | – | – | – | – | – | 12.3 | Fractional motility [5, 20]: -0.99 |
| O=C(CCCN1CCC2(CC1)C(=O)NCN2c1ccccc1)c1ccc(F)cc1 [spiperone] | – | – | – | – | – | – | – | – | – | – | 1510 | – |
